Measured values as given in patent US20260274832A1, “COMPOUNDS AND THEIR USE IN TREATING CANCER” (ASTRAZENECA AB, priority 2023, published 2026).

What was measured:
[1] = target: T1, AR (L702H) in LNCaP cells (Homo sapiens, UniProt P10275, L702H/T878A); assay: LNCaP Androgen Receptor L702H Imaging Assay (LNCaP cells engineered by CRISPR/Cas9); format: cell-based; conditions: LNCaP cells with AR L702H mutation, 24 h incubation; for DC50: concentration giving 50% of maximum degradation of AR (L702H) per curve fit; for LNCaP AR (L702H) Degradation Dmax / Dmax: maximum degradation observed, normalized as % of positive control; for Dmax: LNCaP
T1 construct: engineered to introduce the mutation L702H into the AR gene using CRISPR/Cas9; endogenous in cells; host or cells: LNCaP cells edited by CRISPR/Cas9 at the AR gene
Procedure, shortened: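 CRISPR-engineered LNCaP cells carrying AR L702H were treated 24 h at 37 °C with a 12-point compound dose response (0.3% DMSO), then fixed and immunostained for AR with DRAQ5 nuclear counterstain. Nuclear AR was quantified by imaging, normalized to positive control; DC50 and Dmax came from Hill or bell-shaped fits.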

[2] = target: T2, AR (AR-full length) in LNCaP cells (Homo sapiens, UniProt P10275, T878A); assay: LNCaP Androgen Receptor Imaging Assay (immunofluorescence of endogenous nuclear AR); format: cell-based; conditions: 24 h incubation; for DC50: concentration giving 50% of maximum degradation of AR per curve fit, single experiment or average of two or more; for LNCaP AR Degradation Dmax / Dmax: maximum degradation observed, normalized as % of positive control (prior art AR PROTAC at 3 μM); for Dmax: LNCaP
T2 construct: the prostate cancer cell line LNCaP (expressing AR-full length); endogenous in cells; host or cells: LNCaP
Procedure, shortened: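 LNCaP cells (12,000/well) received a 12-point compound dose series (0.3% DMSO) for 24 h at 37° C., then were PFA-fixed and stained for AR (AR441) and nuclei (DRAQ5). Nuclear AR was quantified by imaging, normalized to a 3 μM AR PROTAC control; DC50 and Dmax came from Hill/bell curve fits.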

T1 sequence (P10275 whole entry L702H/T878A): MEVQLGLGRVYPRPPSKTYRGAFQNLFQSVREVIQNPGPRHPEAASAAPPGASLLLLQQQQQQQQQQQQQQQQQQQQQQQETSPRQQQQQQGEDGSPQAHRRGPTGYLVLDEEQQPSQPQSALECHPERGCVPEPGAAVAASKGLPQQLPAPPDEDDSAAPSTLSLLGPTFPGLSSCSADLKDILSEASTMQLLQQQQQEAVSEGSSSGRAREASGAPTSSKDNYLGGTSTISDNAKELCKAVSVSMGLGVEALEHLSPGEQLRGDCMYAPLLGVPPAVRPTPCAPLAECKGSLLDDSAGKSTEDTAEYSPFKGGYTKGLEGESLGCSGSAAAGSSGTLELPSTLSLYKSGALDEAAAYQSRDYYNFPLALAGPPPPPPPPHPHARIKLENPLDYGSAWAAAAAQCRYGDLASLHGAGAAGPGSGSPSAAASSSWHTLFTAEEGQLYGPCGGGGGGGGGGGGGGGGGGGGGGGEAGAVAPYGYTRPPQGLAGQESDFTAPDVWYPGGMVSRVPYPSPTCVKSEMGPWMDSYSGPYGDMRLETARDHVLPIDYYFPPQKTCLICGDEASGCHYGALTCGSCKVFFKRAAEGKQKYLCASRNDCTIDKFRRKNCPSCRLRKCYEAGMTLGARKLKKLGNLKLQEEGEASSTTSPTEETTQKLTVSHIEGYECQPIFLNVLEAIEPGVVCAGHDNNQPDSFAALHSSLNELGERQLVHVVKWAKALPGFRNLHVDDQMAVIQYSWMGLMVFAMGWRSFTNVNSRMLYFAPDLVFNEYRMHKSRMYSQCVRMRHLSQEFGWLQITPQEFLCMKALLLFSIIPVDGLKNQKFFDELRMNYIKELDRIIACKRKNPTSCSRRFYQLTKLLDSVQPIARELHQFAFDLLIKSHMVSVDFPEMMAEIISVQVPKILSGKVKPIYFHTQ
T1 sequence (Q96SW2 whole entry partner): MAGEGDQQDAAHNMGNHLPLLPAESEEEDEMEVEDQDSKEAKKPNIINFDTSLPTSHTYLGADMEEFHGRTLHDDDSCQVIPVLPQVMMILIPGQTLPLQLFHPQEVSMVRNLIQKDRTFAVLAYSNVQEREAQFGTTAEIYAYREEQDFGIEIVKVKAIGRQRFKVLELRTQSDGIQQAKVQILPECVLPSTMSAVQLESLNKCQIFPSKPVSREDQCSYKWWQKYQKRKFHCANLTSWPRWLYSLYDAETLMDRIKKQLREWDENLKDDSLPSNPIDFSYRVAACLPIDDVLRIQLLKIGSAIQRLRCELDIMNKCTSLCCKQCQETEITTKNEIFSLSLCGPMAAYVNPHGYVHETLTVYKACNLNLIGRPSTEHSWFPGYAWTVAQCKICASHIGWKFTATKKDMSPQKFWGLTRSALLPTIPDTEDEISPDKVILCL
T2 sequence (P10275 whole entry T878A): as the sequence (P10275 whole entry L702H/T878A) above, with H702L counted along it
T2 sequence (Q96SW2 whole entry partner): as the sequence (Q96SW2 whole entry partner) above

DC50 [1] | LNCaP AR (L702H) Degradation Dmax [1] | DC50 [2] | LNCaP AR Degradation Dmax [2] | Dmax [2] | Dmax [1] | Compound
4 nM | – | 6 nM | – | 92% | 104% | N#Cc1n[nH]c2c(N3CCC[C@H](c4ccc(N5CCC(CN6CCC(n7ccc8c(N9CCC(=O)NC9=O)cccc87)CC6)CC5)cc4)C3)ccc(Cl)c12 [Example 25, 4-Chloro-7-[(3R)-3-{4-[4-({4-[4-(2,4-dioxo-1,3-diazinan-1-yl)-1H-indol-1-yl]piperidin-1-yl}methyl)piperidin-1-yl]phenyl}piperidin-1-yl]-1H-indazole-3-carbonitrile]
17 nM | – | 4 nM | – | 98% | 83% | N#Cc1c[nH]c2c(N3CCC(c4ccc(C(=O)N5CCC(CN6CCN(c7ccc8c(c7)CN(C7CCC(=O)NC7=O)C8=O)CC6)CC5)cc4)CC3)ccc(Cl)c12 (stereo not drawn) [Example 85, 4-Chloro-7-(4-{4-[4-({4-[2-(2,6-dioxopiperidin-3-yl)-1-oxo-2,3-dihydro-1H-isoindol-5-yl]piperazin-1-yl}methyl)piperidine-1-carbonyl]phenyl}piperidin-1-yl)-1H-indole-3-carbonitrile]
17 nM | – | > 3000 nM | – | – | 87% | COc1cc(N2CCN(CC3CCN(c4ccc(C5CCN(c6ccc(Cl)c7c(C#N)cn(C)c67)CC5)cc4)CC3)CC2)cc2c1C(=O)N(C1CCC(=O)NC1=O)C2 (stereo not drawn) [Example 112, 4-chloro-7-(4-{4-[4-({4-[2-(2,6-dioxopiperidin-3-yl)-7-methoxy-1-oxo-2,3-dihydro-1H-isoindol-5-yl]piperazin-1-yl}methyl)piperidin-1-yl]phenyl}piperidin-1-yl)-1-methyl-1H-indole-3-carbonitrile]
9 nM | – | 7 nM | – | 105% | 106% | N#Cc1n[nH]c2c(N3CCC[C@@H](c4ccc(N5CCC(CN6CCC(n7ccc8c(N9CCC(=O)NC9=O)cccc87)CC6)CC5)cc4)C3)ccc(Cl)c12 [Example 9]
40 nM | 90% | 13 nM | 101% | – | – | N#Cc1n[nH]c2c(N3CCOC(c4ccc(N5CCC(CN6CCC(n7ccc8c(N9CCC(=O)NC9=O)cccc87)CC6)CC5)cc4)C3)ccc(Cl)c12 (single isomer, unassigned) [Example 120, 4-Chloro-7-[(2R*)-2-{4-[4-({4-[4-(2,4-dioxo-1,3-diazinan-1-yl)-1H-indol-1-yl]piperidin-1-yl}methyl)piperidin-1-yl]phenyl}morpholin-4-yl]-1H-indazole-3-carbonitrile]
12 nM | – | 22 nM | – | 99% | 103% | Cn1c(C2CCN(CC3CCN(c4ccc(C5CCN(c6ccc(Cl)c7c(C#N)c[nH]c67)CC5)cc4)CC3)CC2)cc2ccc(N3CCC(=O)NC3=O)cc21 [Example 84, 4-Chloro-7-(4-{4-[4-({4-[6-(2,4-dioxo-1,3-diazinan-1-yl)-1-methyl-1H-indol-2-yl]piperidin-1-yl}methyl)piperidin-1-yl]phenyl}piperidin-1-yl)-1H-indole-3-carbonitrile]
52 nM | – | 62 nM | – | 93% | 97% | N#Cc1c[nH]c2c(N3CCC(c4ccc(N5CCC(CN6CCN(c7cc8c(cc7F)C(=O)N(C7CCC(=O)NC7=O)C8=O)CC6)CC5)cc4)CC3)ccc(F)c12 (stereo not drawn) [Example 52, 7-(4-{4-[4-({4-[2-(2,6-Dioxopiperidin-3-yl)-6-fluoro-1,3-dioxo-2,3-dihydro-1H-isoindol-5-yl]piperazin-1-yl}methyl)piperidin-1-yl]phenyl}piperidin-1-yl)-4-fluoro-1H-indole-3-carbonitrile]
5 nM | – | 4 nM | – | 99% | 106% | N#Cc1c[nH]c2c(N3CCC(c4ccc(N5CCC(N6CCC(n7ccc8c(N9CCC(=O)NC9=O)cccc87)CC6)CC5)cc4)CC3)ccc(Cl)c12 [Example 111, 4-Chloro-7-[4-(4-{4-[4-(2,4-dioxo-1,3-diazinan-1-yl)-1H-indol-1-yl][1,4′-bipiperidin]-1′-yl}phenyl)piperidin-1-yl]-1H-indole-3-carbonitrile]
23 nM | – | 5 nM | – | 93% | 57% | COc1cc(N2CCN(CC3CCN(c4ccc(C5CCN(c6ccc(Cl)c7c(C#N)c[nH]c67)CC5)nc4)CC3)CC2)cc2c1C(=O)N(C1CCC(=O)NC1=O)C2 (stereo not drawn) [Example 60, 4-Chloro-7-(4-{5-[4-({4-[2-(2,6-dioxopiperidin-3-yl)-7-methoxy-1-oxo-2,3-dihydro-1H-isoindol-5-yl]piperazin-1-yl}methyl)piperidin-1-yl]pyridin-2-yl}piperidin-1-yl)-1H-indole-3-carbonitrile]
2 nM | – | 1 nM | – | 102% | 109% | N#Cc1c[nH]c2c(N3CCC(NC(=O)c4ccc(N5CCC(CN6CCC(n7ccc8c(N9CCC(=O)NC9=O)cccc87)CC6)CC5)cc4)CC3)ccc(Cl)c12 [Example 173, N-[1-(4-Chloro-3-cyano-1H-indol-7-yl)piperidin-4-yl]-4-[4-({4-[4-(2,4-dioxo-1,3-diazinan-1-yl)-1H-indol-1-yl]piperidin-1-yl}methyl)piperidin-1-yl]benzamide]
22 nM | 94% | 10 nM | 97% | – | – | N#Cc1c[nH]c2c(N3CCCC(c4ccc(N5CCC(CN6CCC(n7ccc8c(N9CCC(=O)NC9=O)cccc87)CC6)CC5)cn4)C3)ccc(Cl)c12 (single isomer, unassigned) [Example 66, 4-Chloro-7-[(3S*)-3-{5-[4-({4-[4-(2,4-dioxo-1,3-diazinan-1-yl)-1H-indol-1-yl]piperidin-1-yl}methyl)piperidin-1-yl]pyridin-2-yl}piperidin-1-yl]-1H-indole-3-carbonitrile]
2 nM | – | 1 nM | – | 107% | 113% | Cc1cc(N2CCC(CN3CCC(n4ccc5c(N6CCC(=O)NC6=O)cccc54)CC3)CC2)cc(F)c1C(=O)NC1CCN(c2ccc(Cl)c3c(C#N)c[nH]c23)CC1 [Example 163, N-[1-(4-Chloro-3-cyano-1H-indol-7-yl)piperidin-4-yl]-4-[4-({4-[4-(2,4-dioxo-1,3-diazinan-1-yl)-1H-indol-1-yl]piperidin-1-yl}methyl)piperidin-1-yl]-2-fluoro-6-methylbenzamide]
67 nM | – | 14 nM | – | 79% | 69% | N#Cc1c[nH]c2c(N3CCC[C@@H](c4ccc(N5CCC(CN6Cc7cc8c(cc7C6)C(=O)N(C6CCC(=O)NC6=O)C8=O)CC5)cc4)C3)ccc(Cl)c12 (stereo partly drawn) [Example 77, 4-Chloro-7-{(3S)-3-[4-(4-{[6-(2,6-dioxopiperidin-3-yl)-5,7-dioxo-3,5,6,7-tetrahydropyrrolo[3,4-f]isoindol-2(1H)-yl]methyl}piperidin-1-yl)phenyl]piperidin-1-yl}-1H-indole-3-carbonitrile]
50 nM | – | 22 nM | – | 97% | 93% | N#Cc1c[nH]c2c(N3CCC(c4ccc(N5CCC(CN6CCN(c7ccc(C(=O)NC8CCC(=O)NC8=O)c(F)c7)CC6)CC5)cc4)CC3)ccc(Cl)c12 (stereo not drawn) [Example 106, 4-{4-[(1-{4-[1-(4-Chloro-3-cyano-1H-indol-7-yl)piperidin-4-yl]phenyl}piperidin-4-yl)methyl]piperazin-1-yl}-N-(2,6-dioxopiperidin-3-yl)-2-fluorobenzamide]

Compound | DC50 [1] | LNCaP AR (L702H) Degradation Dmax [1] | DC50 [2] | LNCaP AR Degradation Dmax [2] | Dmax [2] | Dmax [1]
Cc1ccc(N2CCC(c3ccc(OCCCCN4CCN(c5ccc6c(c5)CN(C5CCC(=O)NC5=O)C6=O)CC4)cc3)C2)c2[nH]cc(C#N)c12 (single isomer, unassigned) [Example 151, 7-{(3R*)-3-[4-(4-{4-[2-(2,6-Dioxopiperidin-3-yl)-1-oxo-2,3-dihydro-1H-isoindol-5-yl]piperazin-1-yl}butoxy)phenyl]pyrrolidin-1-yl}-4-methyl-1H-indole-3-carbonitrile] | 497 nM | 42% | 18 nM | 67% | – | –
Cc1ccc(N2CCN(c3ccc(OCCCCN4CCN(c5ccc6c(c5)CN(C5CCC(=O)NC5=O)C6=O)CC4)cc3)CC2)c2[nH]cc(C#N)c12 (stereo not drawn) [Example 95, 7-{4-[4-(4-{4-[2-(2,6-Dioxopiperidin-3-yl)-1-oxo-2,3-dihydro-1H-isoindol-5-yl]piperazin-1-yl}butoxy)phenyl]piperazin-1-yl}-4-methyl-1H-indole-3-carbonitrile] | > 3000 nM | – | 10 nM | – | 54% | –
Cc1ccc(N2CCC(c3ccc(OCCCCN4CCN(c5cc6c(cc5F)C(=O)N(C5CCC(=O)NC5=O)C6=O)CC4)cc3)CC2)c2[nH]cc(C#N)c12 (stereo not drawn) [Example 50, 7-{4-[4-(4-{4-[2-(2,6-Dioxopiperidin-3-yl)-6-fluoro-1,3-dioxo-2,3-dihydro-1H-isoindol-5-yl]piperazin-1-yl}butoxy)phenyl]piperidin-1-yl}-4-methyl-1H-indole-3-carbonitrile] | 769 nM | – | 137 nM | – | 98% | 94%
